According to patent US7250400B2, “Peptides and derivatives thereof showing cell attachment, spreading and detachment activity” (Regen Biotech, Inc., priority 2002, dated 2007):
Entries after “also recorded” stand apart in the source; their conditions may differ.

What was measured:
Format in all cases: cell-based
HCE cells [1] = test: Effect of synthetic peptides on βig-h3-mediated HCE cell adhesion; details: 100 μM peptide; for cell detachment activity: HCE cell adhesion to βig-h3, FIG. 8a; for inhibition of HCE cell adhesion to βig-h3: preincubation 30 min, dishes coated with 10 μg/ml βig-h3, FIG. 8a
Procedure: (§1) The recombinant βig-h3 fas-1 domain proteins prepared above were assayed for cell attachment activity. First, the recombinant βig-h3 proteins were let to adhere to the bottoms of 96-well microculture plates (Falcon) by incubation at 37° C. for 1 hour and blocked with PBS containing 0.2% BSA. HCE cells were suspended in culture media at a density of 2×10^5 cells/ml. 0.1 ml of the cell suspension was added to each well of the plates coated with the recombinant proteins. Following incubation at 37° C. for 1 hour, unattached cells were removed by washing with PBS. Attached cells were incubated for 1 hour at 37° C. in 50 mM citrate buffer, pH 5.0, containing 3.75 mM p-nitrophenol-N-acetyl 1-β-D-glycosaminide as a hexosaminidase substrate and 0.25% Triton X-100, followed by the addition of 50 mM glycine buffer, pH 10.4, containing 5 mM EDTA to block the enzyme activity. A measurement was made of absorbance at 405 nm in a Multiskan MCC/340 microplate reader.
Effect of the peptides containing conserved sequences of fas-1 domains of βig-h3 on βig-h3-mediated cell adhesion was examined with HCE cells. Cells were preincubated for 30 min in media containing 100 μM of each of the four synthetic peptides or no peptides and transferred to plastic culture dishes coated with 10 μg/ml BSA or 10 μg/ml βig-h3. The attached cells were subjected to quantitative hexosaminidase analysis as in Example 1-2.

HCE cells [2] = test: Cell adhesion of HCE cells to surfaces coated with synthetic peptides; details: plates coated with peptide at 0-120 μM, HCE cells 37° C. 1 hour, FIG. 9a
Procedure: as §1
An experiment was carried out to determine whether each of the synthetic peptides is able to mediate cell adhesion. Well plates were coated with each peptide at concentrations of 0, 20, 40, 60, 80, 100 and 120 μM and then incubated with HCE cells at 37° C. for 1 hour. The attached cells were quantitatively analyzed with hexosaminidase as in Example 1-2.

HCE cells [3] = test: Effect of synthetic peptides on HCE cell adhesion to various extracellular matrix proteins; details: 100 μM peptide; for inhibition of cell adhesion to fibronectin: plates coated with fibronectin; for inhibition of cell adhesion to fibronectin / inhibition of cell adhesion to laminin / inhibition of cell adhesion to type I collagen / inhibition of cell adhesion to type II collagen / inhibition of cell adhesion to vitronectin: FIG. 10a; for inhibition of cell adhesion to laminin: plates coated with laminin; for inhibition of cell adhesion to type I collagen: plates coated with type I collagen; for inhibition of cell adhesion to type II collagen: plates coated with type II collagen; for inhibition of cell adhesion to vitronectin: plates coated with vitronectin; for inhibition of cell adhesion to βig-h3: plates coated with βig-h3, FIG. 10a
Procedure: as §1
To determine whether the inhibitory activity of synthetic peptides EPDIM (SEQ ID NO:3 and NKDIL (SEQ ID NO:2) against cell adhesion is specific to βig-h3, effects of the synthetic peptides on cell adhesion to various matrix proteins were examined. HCE cells were preincubated in media added with 100 μM of the synthetic peptide EPDIM (SEQ ID NO:3) or NKDIL (SEQ ID NO:2) or none of them and then applied to plates coated with various matrix proteins, including βig-h3, fibronectin, laminin, vitronectin, type I and type II collagen. After 1 hour of incubation, the attached cells were quantitatively analyzed with hexosaminidase as in Example 1-2.

α3β1 integrin = test: Function-blocking anti-integrin antibodies on HCE cell adhesion to plates coated with EPDIM or NKDIL; details: plates coated with 100 μM peptide, antibodies 5 μg/ml, FIG. 9b
Procedure: Function-blocking experiments using monoclonal antibodies against various integrin subunits were carried out to examine whether α3β1 integrin, known as a surface receptor of βig-h3, would be involved in the cell adhesion mediated by the synthetic peptides EPDIM (SEQ ID NO:3) and NKDIL (SEQ ID NO:2). HCE was preincubated at 37° C. for 30 mm in the presence of each of the monoclonal antibodies (5 μg/ml) against different types of integrins. The preincubated cells were transferred onto plates precoated with 100 μM EPDIM (SEQ ID NO:3) or 100 μM NKDIL (SEQ ID NO:2) and then incubated further at 37° C. for 1 hour, followed by the quantitative analysis with hexosaminidase substrate as in Example 1-2.

HCE cells [4] = test: Inhibition of HCE cell adhesion to βig-h3, fibronectin and laminin at various concentrations of EPDIM; details: EPDIM 0-1,200 μM, FIG. 10b
Procedure: as §1
HCE cells were incubated in media containing the synthetic peptide EPDIM (SEQ ID NO:3) at concentrations of 0, 200, 400, 600, 800, 1,000 and 1,200 μM and applied to plates coated with βig-h3, fibronectin and laminin. Following incubation for 1 hour, the attached cells were quantitatively analyzed with hexosaminidase as in Example 1-2.

HCE cells [5] = test: Cell attachment activity of recombinant βig-h3 fas-1 domain proteins coated on plates (hexosaminidase assay); details: HCE cells on plates coated with the recombinant protein, 37° C. 1 hour, FIG. 2
Procedure: as §1

HCE cells [6] = test: Cell attachment activity of substitution mutants of the 4th fas-1 domain of βig-h3; details: HCE cells on plates coated with the mutant protein, 37° C. 1 hour, FIG. 6
Procedure: as §1
Examination was made of the cell attachment activity of the mutated proteins wherein the Pro616, Asp617 and Ile618 of βigh3 D-IV were substituted, in combination, with Ser, Ala and Ser, respectively, that is, βigh3 D-IV-sDI, βigh3 D-IV-Pal, βigh3 D-IV-PDs, and βigh3 D-IV-sas. To this end, HCE cells were incubated at 37° C. for 1 hour in well plates coated with the mutant proteins, followed by subjecting the attached cells to the hexosaminidase substrate as in Example 1-2.

Chain of α3β1 integrin (P26006 33-872 limits assumed): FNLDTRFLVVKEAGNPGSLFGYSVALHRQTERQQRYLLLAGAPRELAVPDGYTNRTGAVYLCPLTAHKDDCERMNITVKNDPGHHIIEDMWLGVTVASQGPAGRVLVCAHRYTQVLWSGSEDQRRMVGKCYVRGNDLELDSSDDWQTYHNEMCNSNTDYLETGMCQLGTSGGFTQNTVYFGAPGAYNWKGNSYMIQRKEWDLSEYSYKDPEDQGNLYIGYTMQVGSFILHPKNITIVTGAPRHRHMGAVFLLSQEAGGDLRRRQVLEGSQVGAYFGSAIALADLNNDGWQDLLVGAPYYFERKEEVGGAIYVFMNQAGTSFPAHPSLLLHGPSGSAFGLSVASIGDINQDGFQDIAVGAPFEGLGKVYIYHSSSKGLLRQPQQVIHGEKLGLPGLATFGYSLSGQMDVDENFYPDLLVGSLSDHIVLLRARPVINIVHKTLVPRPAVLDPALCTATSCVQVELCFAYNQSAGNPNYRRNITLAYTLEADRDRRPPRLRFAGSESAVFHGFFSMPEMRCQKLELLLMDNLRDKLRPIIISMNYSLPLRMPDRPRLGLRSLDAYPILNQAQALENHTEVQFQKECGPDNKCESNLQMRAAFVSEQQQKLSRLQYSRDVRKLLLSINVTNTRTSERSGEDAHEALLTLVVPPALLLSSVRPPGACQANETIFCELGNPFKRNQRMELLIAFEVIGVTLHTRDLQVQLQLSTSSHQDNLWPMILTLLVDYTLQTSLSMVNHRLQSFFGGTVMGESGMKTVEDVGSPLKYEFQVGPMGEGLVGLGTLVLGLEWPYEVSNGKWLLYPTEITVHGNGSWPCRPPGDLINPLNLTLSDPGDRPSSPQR
Chain of α3β1 integrin (P26006 876-1051 limits assumed): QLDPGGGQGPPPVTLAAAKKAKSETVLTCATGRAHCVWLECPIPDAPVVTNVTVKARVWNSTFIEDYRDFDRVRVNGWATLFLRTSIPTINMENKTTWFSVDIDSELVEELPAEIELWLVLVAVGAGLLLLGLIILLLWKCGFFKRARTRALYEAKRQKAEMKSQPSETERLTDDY
Chain of α3β1 integrin (P05556 21-798, further chain): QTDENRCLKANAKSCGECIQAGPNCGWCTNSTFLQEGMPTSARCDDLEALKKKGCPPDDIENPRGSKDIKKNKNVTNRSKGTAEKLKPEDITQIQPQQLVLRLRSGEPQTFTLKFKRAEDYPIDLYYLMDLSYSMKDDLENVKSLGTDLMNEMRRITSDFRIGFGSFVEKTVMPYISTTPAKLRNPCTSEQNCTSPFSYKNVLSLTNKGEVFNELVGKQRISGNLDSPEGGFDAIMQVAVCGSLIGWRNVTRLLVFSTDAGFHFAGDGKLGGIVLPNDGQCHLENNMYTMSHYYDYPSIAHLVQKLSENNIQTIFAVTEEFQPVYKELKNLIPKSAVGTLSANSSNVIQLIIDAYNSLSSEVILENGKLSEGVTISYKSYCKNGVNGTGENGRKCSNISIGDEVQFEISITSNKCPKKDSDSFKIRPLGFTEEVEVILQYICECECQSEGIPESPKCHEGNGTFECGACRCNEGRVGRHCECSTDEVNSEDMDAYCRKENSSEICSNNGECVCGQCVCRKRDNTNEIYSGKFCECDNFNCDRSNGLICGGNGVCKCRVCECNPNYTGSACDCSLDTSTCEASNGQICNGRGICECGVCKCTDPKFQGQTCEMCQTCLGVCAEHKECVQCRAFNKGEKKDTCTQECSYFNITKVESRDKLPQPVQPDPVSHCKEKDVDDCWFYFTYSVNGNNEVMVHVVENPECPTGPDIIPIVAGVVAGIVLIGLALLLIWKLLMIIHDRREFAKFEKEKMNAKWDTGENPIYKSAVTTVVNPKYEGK

Molecule | cell detachment activity (HCE cells [1]) | inhibition of HCE cell adhesion to βig-h3 (HCE cells [1]) | ability to mediate cell adhesion (HCE cells [2]) | cell attachment and spreading activity (HCE cells [5]) | cell attachment activity (HCE cells [6]) | further results
KADHH [synthetic peptide, a.a] | relatively very low cell detachment effects | weak suppression of cell adhesion; also recorded: weakly inhibited | low in activity compared to NKDIL | – | – | –
NKDIL [synthetic peptide, a.a] | very excellent cell detachment effect; also recorded: excellent cell detachment activity | significant suppression of the cell attachment activity; also recorded: significantly blocked | capable of mediating cell adhesion in dose-dependent manners; also recorded: mediate cell adhesion in dose-dependent manners | – | – | inhibition of cell adhesion to fibronectin (HCE cells [3]): weakly inhibited; inhibition of cell adhesion to laminin (HCE cells [3]): efficiently blocked; inhibition of cell adhesion to type I collagen (HCE cells [3]): did not affect; inhibition of cell adhesion to type II collagen (HCE cells [3]): did not affect; inhibition of cell adhesion to vitronectin (HCE cells [3]): did not affect; inhibition of cell adhesion to βig-h3 (HCE cells [3]): efficiently blocked; α3β1 integrin as receptor in peptide-mediated cell adhesion (α3β1 integrin): revealed to act as a receptor
EPDIM [synthetic peptide, a.a] | very excellent cell detachment effect; also recorded: excellent cell detachment activity | significant suppression of the cell attachment activity; also recorded: significantly blocked | capable of mediating cell adhesion in dose-dependent manners; also recorded: mediate cell adhesion in dose-dependent manners | – | – | inhibition of cell adhesion to fibronectin (HCE cells [3]): weakly inhibited; inhibition of cell adhesion to laminin (HCE cells [3]): efficiently blocked; inhibition of cell adhesion to type I collagen (HCE cells [3]): did not affect; inhibition of cell adhesion to type II collagen (HCE cells [3]): did not affect; inhibition of cell adhesion to vitronectin (HCE cells [3]): did not affect; inhibition of cell adhesion to βig-h3 (HCE cells [3]): efficiently blocked; inhibitory effect on cell adhesion to fibronectin (HCE cells [4]): dose-dependent; inhibitory effect on cell adhesion to laminin (HCE cells [4]): dose-dependent; inhibitory effect on cell adhesion to βig-h3 (HCE cells [4]): dose-dependent; α3β1 integrin as receptor in peptide-mediated cell adhesion (α3β1 integrin): revealed to act as a receptor
DEMPI [reference compound] | failed to show; also recorded: low cell detachment activity | did not affect cell adhesion | not active in cell adhesion | – | – | –
βigh3-D-III: recombinant His-tagged 3rd fas-1 domain of human βig-h3, amino acid residues 373 to 501 (protein) PDSAKTLFELAAESDVSTAIDLFRQAGLGNHLSGSERLTLLAPLNSVFKDGTPPIDAHTRNLLRNHIIKDQLASKYLYHGQTLETLGGKKLRVFVYRNSLCIENSCIAAHDKRGRYGTLFTMDRVLTPPHHHHHH | – | – | – | almost no activity | – | –
βigh3-D-IV: recombinant His-tagged 4th fas-1 domain of human βig-h3, amino acid residues 501 to 632 (protein) MGTVMDVLKGDNRFSMLVAAIQSAGLTETLNREGVYTVFAPTNEAFRALPPRERSRLLGDAKELANILKYHIGDEILVSGGIGALVRLKSLQGDKLEVSLKNNVVSVNKEPVAEPDIMATNGVVHVITNVLHHHHHH | – | – | – | comparable to the activity of wild type βig-h3 | – | –
βigh3 D-IV-Pal: βigh3 D-IV mutant having Ala instead of Asp617 (protein) MGTVMDVLKGDNRFSMLVAAIQSAGLTETLNREGVYTVFAPTNEAFRALPPRERSRLLGDAKELANILKYHIGDEILVSGGIGALVRLKSLQGDKLEVSLKNNVVSVNKEPVAEPAIMATNGVVHVITNVLHHHHHH | – | – | – | – | significantly blocked cell adhesion | –
βigh3 D-IV-sDI: βigh3 D-IV mutant having Ser instead of Pro616 (protein) MGTVMDVLKGDNRFSMLVAAIQSAGLTETLNREGVYTVFAPTNEAFRALPPRERSRLLGDAKELANILKYHIGDEILVSGGIGALVRLKSLQGDKLEVSLKNNVVSVNKEPVAESDIMATNGVVHVITNVLHHHHHH | – | – | – | – | comparable to that of the wild type control | –
βigh3 DIV-sas: βigh3 D-IV mutant in which the three amino acids Pro616, Asp617, Ile618 were mutated to Ser, Ala, Ser (protein) MGTVMDVLKGDNRFSMLVAAIQSAGLTETLNREGVYTVFAPTNEAFRALPPRERSRLLGDAKELANILKYHIGDEILVSGGIGALVRLKSLQGDKLEVSLKNNVVSVNKEPVAESASMATNGVVHVITNVLHHHHHH | – | – | – | – | far lower than the control | –
βigh3 D-IV-PDs: βigh3 D-IV mutant having Ser instead of Ile618 (protein) MGTVMDVLKGDNRFSMLVAAIQSAGLTETLNREGVYTVFAPTNEAFRALPPRERSRLLGDAKELANILKYHIGDEILVSGGIGALVRLKSLQGDKLEVSLKNNVVSVNKEPVAEPDSMATNGVVHVITNVLHHHHHH | – | – | – | – | significantly blocked cell adhesion | –
βigh3-D-II: recombinant His-tagged 2nd fas-1 domain of human βig-h3, amino acid residues 242 to 372 (protein) NIQQIIEIEDTFETLRAAVAASGLNTMLEGNGQYTLLAPTNEAFEKIPSETLNRILGDPEALRDLLNNHILKSAMCAEAIVAGLSVETLEGTTLEVGCSGDMLTINGKAIISNKDILATNGVIHYIDELLIHHHHHH | – | – | – | comparable to the activity of wild type βig-h3 | – | –
βigh3-D-I: recombinant His-tagged 1st fas-1 domain of human βig-h3, amino acid residues 133 to 236 (protein) EGPGSFTIFAPSNEAWASLPAEVLDSLVSNVNIELLNALRYHMVGRRVLTDELKHGMTLTSMYQNSNIQIHHYPNGIVTVNCARLLKADHHATNGVVHLIDKVIHHHHHH | – | – | – | weak activity | – | –
